Point of comparison: COCOc1ccc(-c2ncc3ncc(NC(=O)c4cccnc4)cc3n2)cc1, melting point 232 °C. Against it:
- O=C(O)c1sc(Oc2ccc3c(c2)OCO3)c2c1CCc1cnoc1-2 — lower, 226 to 228 °C
- NNc1cc(-c2ccccn2)ccn1 — lower, 120 to 121 °C
- CC(=O)c1ccc(C2CC(C)(C)CC(C)(C)C2)cc1 — lower, 54 °C
- O=C1C(Cc2ccccc2)C(c2ccccc2)Nc2ccccc2N1Cc1ccccc1 (stereo not given) — lower, 149 to 150 °C
- CCCN1CCC[C@@H]2c3cccc(O)c3OC[C@H]21 (relative stereo) — lower, 111 to 114 °C
- O=c1ccc2c(-c3ccccc3)cc(N3CCN(Cc4ccccc4)CC3)n2cc1 — lower, 157 °C
- Fc1ccc(-c2nc3ccccn3c2Br)c(F)c1 — lower, 144 °C
- CCCCOc1c(CN2C(=O)c3ccccc3C2=O)n(CC(C)(C)C)c(=O)c2cc(F)ccc12 — lower, 155 to 156 °C
- O=C1N(Cc2ccc3nonc3c2)c2ccccc2C12COc1cc3c(cc12)CCO3 (stereo not given) — lower, 169 to 171 °C
- N#Cc1ccc(-c2cn(-c3ccc(C#N)cc3)c(SCc3ccccn3)n2)cc1 — lower, 164 to 170 °C
- COc1cc2c(cc1Nc1ncc(Cl)c(Nc3ccccc3S(=O)(=O)N(C)C)n1)CCN(CC(=O)N1CCN(C)CC1)CC2 — lower, 140 °C
- C1=C(c2ccccc2)c2ccccc2C1(Cc1ccncc1)Cc1ccncc1 — higher, > 250 °C
- Cc1ncn(C)c1[N+](=O)[O-] — lower, 45 °C
- CCC(C)(C)N1C(=O)C2(COc3cc4c(cc32)CCO4)c2ccccc21 (stereo not given) — lower, 128 to 129 °C
- CCCCc1c[nH]c2cccc(SC)c2c1=O — lower, 144 °C
- COC(=O)C=C1NCC(c2ccccc2)OC1=O (stereo not given) — lower, 125 to 126 °C
- CS(=O)(=O)CCCC(=O)NNC(=O)N1Cc2ccccc2Oc2ccc(Cl)cc21 — lower, 198 to 199 °C
- OCc1cccc(-c2cccc(F)c2)c1-c1cccc(F)c1 — lower, 114 to 116 °C
- Cc1cnc(NS(=O)(=O)c2cccc(Cl)c2Cl)c(OCc2ccco2)n1 — lower, 127 to 129 °C
- COC(=O)c1ccc(C(=O)c2ccc(C)cc2)cc1 — lower, 125 to 126 °C
- CN1CCN(c2cccc3ccc(NC(N)=S)cc23)CC1 — lower, 194 to 195 °C
- CN(C)C1CC=C(c2ccccc2Cc2ccccc2)CC1 (stereo not given) — lower, 44 to 45 °C
- CCCCc1csc2ccc3[nH]c4c(c3c12)CNCC4 — lower, 224 to 225 °C
- OCC1CC(n2c(N3CCC3)nc3cc(Cl)c(Cl)cc32)C(O)C1O (stereo not given) — lower, 221 to 222 °C
- CCOP(=O)(/C=C/c1cn(-c2ccccc2)nc1OCc1ccc(OCc2nc(-c3ccccc3)oc2C)c(OC)c1)OCC — lower, 92 to 93 °C
- COc1ccc(C(=O)O)cc1NC(=O)C(CS)Cc1ccccc1 (stereo not given) — lower, 188 to 192 °C
- Cc1ccc([N+](=O)[O-])c(OCCOc2cc(C(=O)OC(C)(C)C)ccc2[N+](=O)[O-])c1 — lower, 113 to 114 °C
- CCOc1ccnc(CSc2nc3ccc(C(F)(F)F)cc3[nH]2)c1C — lower, 173 to 177 °C
- CCS(=O)c1ccc(Oc2ccc(Cl)c(Cl)c2)nc1C#N (stereo not given) — lower, 138 to 144 °C
- C=Cn1nnn(-c2cc(OC)c(Cl)cc2Cl)c1=O — lower, 142 to 143 °C
- COC(=O)c1cc(S(N)(=O)=O)c(Br)cc1C — lower, 198 to 200 °C
- CCc1nn(C2CCCC2)c2cc(C(=O)Nc3c(Cl)ncnc3Cl)ccc12 — lower, 171 to 172 °C
- CCOc1nc(NCc2ccco2)nc(Nc2ccc(OC)c(OC)c2)n1 — lower, 100 to 102 °C
- CCCc1cn(C)c2c(=O)[nH]c(-c3cc(S(=O)(=O)N4CCN(CCCOC(C)=O)CC4)ccc3OCC)nc12 — lower, 157 to 158 °C
- COc1cc(C(C)(C)C)c(O)c(C(=O)Nc2ccc(S(=O)(=O)C(F)(F)F)cc2Cl)c1C — lower, 121 to 122 °C
- COC(=O)/C=C/C(=O)/C=C/c1ccc(OC)cc1 — lower, 54 to 55 °C
- COc1ccc(CN(C)CCOc2ccc(NC(=O)c3cccc4c(=O)c5cc(SC)ccc5[nH]c34)cc2)cc1OC — lower, 160 °C
- O=C(O)c1cc(F)cc(-c2cccc3cc(Cc4cc(F)cc(Cl)c4)sc23)c1 — lower, 168 to 170 °C
- CCCc1nn(-c2ccc(C(F)(F)F)cn2)cc1COc1ccc(CCC(=O)O)c(OC)c1 — lower, 153 to 154 °C
- CCCCn1c(=O)cc(-c2ccc(NCCO)cc2)[nH]c1=O — lower, 207 to 208 °C
- Fc1ccc(Cl)c2oc(CCC#Cc3ccccn3)nc12 — lower, 102 to 103 °C
- CC(=O)c1ccc(OC(C)CCCCC(=O)O)cc1O (stereo not given) — lower, 116 to 118 °C
- CC(=Cc1ccc2ccccc2n1)C(=O)NO — lower, 182 to 183 °C
- CCC(C)S(=O)(=O)c1cc(C(F)(F)F)ccc1C(=O)c1cnoc1C1CC1 (stereo not given) — lower, 89 to 91 °C
- NS(=O)(=O)c1cccc2cc[nH]c12 — lower, 125 to 127 °C
- Cc1nc(N)c2nc(CO)n(NC3CCOCC3)c2c1C — higher, > 250 °C
- O=C1CCCN1[C@@H]1c2cc(C(F)(F)F)ccc2OC(CF)(CF)[C@H]1O (relative stereo) — lower, 186 to 187 °C
- CCN(CCNC(=O)c1ccc2ccccc2c1)C1CCc2ncsc2C1 (stereo not given) — lower, 110 °C
- Cc1ccc2c(c1)c(=O)oc(=O)n2Cc1ccc(F)cc1 — lower, 153 °C
- Cc1cc2oc(=O)c3c(c2cc1N)CCN(CCN1CC2CCC(CC2)C1)C3 — lower, 142 to 143 °C
- CN1CCN(c2ccccc2C(O)C2SCCNC2=O)CC1 (stereo not given) — lower, 137 to 139 °C
- Cc1ccc([N+](=O)[O-])cc1Nc1nccc(-c2cncnc2)n1 — lower, 200 to 203 °C
- CCOP(=O)(OCC)C(CCC(C(N)=O)P(=O)(OCC)OCC)C(N)=O (stereo not given) — not separable, 232 to 234 °C
- CC[C@H](C)[C@H](NC(=O)OCc1ccccc1)C(=O)Nc1nncs1 (racemic) — lower, 145 to 149 °C
- COCCNC(=O)c1ccc(C(=O)N2CCN(c3ncccc3NCC(C)C)CC2)nc1 — lower, 123 to 125 °C
- COc1cc2c(Nc3ccc(Cl)cc3F)ncnc2cc1OCCN(C)C(=O)OC(C)(C)C — lower, 194 to 196 °C
- COC(=O)[C@H](CCCCNC(=O)OC(C)(C)C)NC(=O)c1ccccc1 — lower, 108 to 109 °C
- CNC(=O)N1CCC(c2nn(-c3ccccc3)c3cc(F)ccc23)CC1 — lower, 163 to 165 °C
- O=C1CC(OC(CBr)CBr)N1 (stereo not given) — lower, 80 to 80.5 °C
- N=C(N)c1ccccc1-c1ccccc1 — lower, 148 to 150 °C
- C#Cc1ccnc(-c2ccc(Br)cc2[N+](=O)[O-])c1 — lower, 166 to 171 °C
- O=C(O)CCCCCOc1cccc2occc12 — lower, 86 to 87 °C
- CC(=O)N[C@@H](C)COc1cc2oc(-c3ccc(OC[C@H]4CC4(F)F)cc3)nc2cn1 — lower, 205 °C
- Cc1oc(-c2ccccc2)nc1COc1ccc2c(-c3ccccc3)c(CO)oc2c1 — lower, 152 to 153 °C
- CCCc1nc2c(N)nc3ccccc3c2n1CCCCCC(=O)OCC — lower, 112 to 113 °C
- NS(=O)(=O)c1ccc(NC(=O)c2cccnc2SSc2ncccc2C(=O)Nc2ccc(S(N)(=O)=O)cc2)cc1 — higher, 280 °C
- OC1CSC(Oc2cccnc2)C(O)C1O (stereo not given) — lower, 216 °C
- O=C(Nc1cccc(Br)c1)Oc1ccc2c(c1)CCCN2Cc1ccccc1 — lower, 117 °C
- Fc1cccc(F)c1COc1cccnc1NC(=S)Nc1ccc(Cl)cc1 — lower, 151 to 154 °C
- COCC1CN(c2ccc3cc(OC(C)=O)ccc3c2)C(=O)O1 (stereo not given) — lower, 110 to 112 °C
- C=Cc1ccc(COc2ccc(COC(=O)C(=O)OCC)cc2)cc1 — lower, 93 °C
- O=C(Nc1cccc(-c2ccnc3c(C(=O)c4cccs4)cnn23)c1)c1cc(C(F)(F)F)ccc1C(F)(F)F — lower, 208 to 210 °C
- O=Cc1c(-c2ccc(Cl)cc2)nsc1-c1ccccc1 — lower, 148 to 149 °C
- Cc1ccc(-c2nc(OC(C)C)c(Br)c(OC(C)C)n2)cc1 — lower, 74 to 75 °C
- Cc1nc(-n2cnn(Cc3ccc(F)cc3)c2=O)sc1C(=O)NCc1cnn(C)c1 — lower, 205 to 206 °C
- CC[C@@H](O)C1(c2onc(-c3ccc(O)cc3)c2-c2ccccc2)CC1 — lower, 163 to 164 °C
- CC(C)(C)c1ccc(CN(Cc2cccc(OCC(=O)O)c2)S(=O)(=O)c2cccnc2)cc1 — lower, 159 to 160 °C
- COc1cc(OC)c(NC(=O)C(c2ccccc2)n2nnc(C(c3ccccc3)c3ccccc3)n2)c(OC)c1 (stereo not given) — lower, 114 to 117 °C
- C=C(C)CSc1ccccc1S(=O)(=O)NC(C)(C)C — lower, 104 to 107 °C
- O=C1COc2cc(NC(=O)C(=O)N3CCC(Cc4ccccc4)CC3)ccc2N1 — lower, 123 to 126 °C
- Cn1nnnc1-c1cn(C)c2ccc(F)cc2c1=O — higher, 260 to 261 °C
- C#Cc1c(N)cc(-c2ccc(Cl)c(OC)c2F)nc1C(=O)OC — lower, 167 to 169 °C
- CCCCCCOc1ccc(C=C(C#N)c2cccnc2)cc1 — lower, 67 to 68 °C
- CC(=O)OC1CSC(Oc2cccc(-c3ncccc3F)c2)C(OC(C)=O)C1OC(C)=O (stereo not given) — lower, 51 °C
- COc1ccccc1-c1nc2cc(NC(=O)c3c(C(=O)N4CCC4)cnn3C)ccn2n1 — higher, 258 °C
- CC1=NNC(=O)N(N)C1 — lower, 117 to 119 °C
- Cc1cc(Nc2ncnc3ccn(CCNC(=O)CS(C)(=O)=O)c23)ccc1Oc1cccc(OC(F)(F)F)c1 — lower, 106 to 108 °C
- COc1ccc(CN2C(=O)[C@H](NC(=O)OC(C)(C)C)[C@@H]2/C=C/C(N)=O)c(OC)c1 — higher, 270 °C
- CC(C)C(=O)NCC(=O)c1ccco1 — lower, 78 to 80 °C
- CN(C)CCc1ccc([N+](=O)[O-])c2[nH]ncc12 — lower, 145 to 146 °C
- CON=C(C(=O)OC)c1cc(C)c(C)cc1COc1ccccc1C — lower, 82 to 84 °C
- CN(CCCCNC(=O)NCCSCc1csc(NC(=N)N)n1)CCOC(c1ccccc1)c1ccccc1 — lower, 101 °C
- C#Cc1cc(C)nc(C(=O)Nc2ccn(C)n2)c1 — lower, 226 °C
- CCOC(=O)C1=Cc2cc(Br)ccc2NCC1 — lower, 120 to 121 °C
- COc1ccc(-c2c(SCc3ccncc3)oc3cc(OC)ccc3c2=O)cc1 — lower, 140 to 141 °C
- CC1=CSC(C)C(=O)N1 (stereo not given) — lower, 78 to 80 °C
- COc1ccc(C2=NN(C(=O)c3cccnc3)CC2)cc1 — lower, 132 to 134 °C
- COc1cc(C(C)=O)ccc1OCCCN1CCC(C(O)(c2ccc(F)cc2)c2ccc(F)cc2)CC1 — lower, 142 to 143 °C
- COc1c(C)cc(C(=O)c2ccc(Cl)cc2)c(OC)c1OC — lower, 99.5 to 100 °C
